Source: patent US7524865B2, “Methods and compositions for treating an ocular neovascular disease” (priority 1993, dated 2009)
Read-outs that look alike come from different tables or passages of the source.

Experiments:
[1] = system: βFGF induced corneal neovascularization; conditions: for median inhibition of the area of vascularized cornea: day 8, percent of median control
Protocol: Pellets for implantation into rabbit corneas were made by mixing 110 μl of saline containing 12 μg of recombinant βFGF (Takeda Pharmaceuticals-Japan) with 40 mg of sucralfate (Bukh Meditec-Denmark); this suspension was added to 80 μl of 12% hydron (Interferon Sciences) in ethanol. 10 μl aliquots of this mixture was then pipetted onto teflon pegs and allowed to dry producing approximately 17 pellets. A pellet was implanted into corneal micropockets of each eye of an anesthetized female New Zealand white rabbit, 2 mm from the limbus followed by topical application of erythromycin ointment onto the surface of the cornea. The animals were fed daily from 2 days post-implantation by gastric lavage with either drug suspended in 0.5% carboxymethyl cellulose or 0.5% carboxymethyl cellulose alone. Thalidomide was purchased from Andrulus Pharmaceutical (Maryland) and the EM-12 and Supidimide were kindly provided by Grunenthal GMBH (Germany). The animals were examined with a slit lamp every other day in a masked manner by the same corneal specialist. The area of corneal neovascularization was determined by measuring with a reticule the vessel length (L) from the limbus and the number of clock hours (C) of limbus involved. A formula was used to determine the area of a circular band segment: C/12*3.1416 [r^2−(r−L)^2] where r=6 mm the measured radius of the rabbit cornea.
Pellets containing βFGF and sucralfate were implanted into micropockets of both corneas of rabbits according to Example II. […] The area of corneal neovascularization was measured from day 4 through day 12. Day 8 measurements were used for comparison between groups. […] Statistical analysis was performed with ANOVA with ranked data to account for interexperimental variation and to guard against a non-normal distribution of data (i.e. outliers) by utilizing a nonparametric method.

[2] = Stability compared with thalidomide; format: physicochemical
B16-BL6 melanoma cells = assay: B16-BL6 melanoma pulmonary metastasis model; format: in vivo, C57B1/6 mice
Protocol: (§1) B16-BL6 melanoma cells (5×10^4) were injected intravenously into the tail veins of C57B1/6 mice. Three days later, the mice were treated intraperitoneally with increasing doses of thalidomide or 2-phthalimidinoglutaric acid (EM-138) on alternate days. Fourteen days after tumor cell inoculation, the lungs were removed from the mice and the surface pulmonary metastases were counted.
as §1, with “orally” for “intraperitoneally”
B16-BL6 melanoma cells (5×10^4) were injected intravenously into the tail veins of C57B1/6 mice. Three days later, the mice received a gavage treatment with 0.8 mmol/kg of 2-phthalimidinoglutaric acid (EM-138). The mice received either a single treatment, five treatments on alternate days, or one treatement every day for eleven days. Fourteen days after tumor cell inoculation, the lungs were removed from the mice and the surface pulmonary metastases were counted.
B16-BL6 melanoma cells (5×10^4) were injected intravenously into the tail veins of C57B1/6 mice. Three days later, treatment began. The mice received intraperitoneal injections of thalidomide (0.4 mmol/kg), thalidomide (3.0 mmol/kg) or 2-phthalimidinoglutaric acid (EM-138) (0.4 mmol/kg) every day. Fourteen days after tumor cell inoculation, the lungs were removed from the mice and the surface pulmonary metastases were counted.

Crohn's disease = assay: Treatment of a patient with Crohn's disease; format: in vivo, human; conditions: 100 mg twice a day orally, one week
Protocol: A patient with Crohn's disease was treated using the methods of the present invention. […] Thalidomide was orally administered to them at a dosage of 100 mg twice a day.

[3] = 0.4 mmol/kg intraperitoneal every day from day 3, lungs day 14

Q: With `O=C1CCC(N2Cc3ccccc3C2=O)C(=O)N1` (stereo not shown) [EM-12] as the molecule, how does the “inhibition in rabbit cornea assay” value ([1]; 100 mg/kg/day) read?
A: Its value is 21%.

Q: What about the “median inhibition of the area of vascularized cornea” value ([1]; 200 mg/kg orally) of the same molecule?
A: Its value is 42%.

Q: And the “inhibition in rabbit cornea assay” value ([1]; 200 mg/kg/day)?
A: Its value is 43%.

Q: Which results are given for `O=C(O)CCC(C(=O)O)N1Cc2ccccc2C1=O` (stereo not shown) [EM-138, 2-phthalimidinoglutaric acid]?
A: stability relative to thalidomide [2]: more stable than thalidomide; T/C, ratio of lung metastases of treated vs. control animals (B16-BL6 melanoma cells; [3]): 0.2; reduction of pulmonary metastases (B16-BL6 melanoma cells; [3]): 80%; inhibition of B16-BL6 metastasis (B16-BL6 melanoma cells; 0.8 mmol/kg/day): over 90%; inhibition of metastasis after a single administration (B16-BL6 melanoma cells; single administration): significantly inhibits metastasis

Q: Which “activity in the rabbit cornea assay (in words)” value ([1]; 200 mg/kg orally) does the source give for `O=C1NCCCC1N1C(=O)c2ccccc2S1(=O)=O` (stereo not shown) [Supidimide] here?
A: The value was “no activity”.

Q: What about the “area of corneal neovascularization, % of control” value ([1]; 200 mg/kg orally, day 8) of the same molecule?
A: The value was 107 % of control.

Q: For `O=C1CCC(N2C(=O)c3ccccc3C2=O)C(=O)N1` (stereo not shown) [thalidomide], which “gastrointestinal symptoms, including diarrhea and cramping” value (Crohn's disease) is on record?
A: Its value is “lessened”.

Q: And the “skin lesion on the lower leg” value (Crohn's disease)?
A: Its value is “resolved”.

Q: What about the “inhibition of pulmonary metastases (in words)” value (B16-BL6 melanoma cells; 0.4 mmol/kg intraperitoneal every day) of the same molecule?
A: Its value is “minimal inhibition”.

Q: What about the “T/C, ratio of lung metastases of treated vs. control animals” value (B16-BL6 melanoma cells; [3]) of the same molecule?
A: Its value is 0.9.

Q: What about the “inhibition of pulmonary metastases (in words)” value (B16-BL6 melanoma cells; 3.0 mmol/kg intraperitoneal every day) of the same molecule?
A: The value was “inhibited metastases”.

Q: What about the “density of vessel ingrowth” value ([1]; 200 mg/kg orally) of the same molecule?
A: The value was “markedly reduced”.

Q: And the “onset of inhibition of angiogenesis” value ([1]; 200 mg/kg orally (FIG. 7))?
A: Its value is “seen after only two doses”.

Q: What about the “inhibition of the area of vascularized cornea, range in three experiments” value ([1]; 200 mg/kg orally, begun day 2, day 8 measurements) of the same molecule?
A: The value was 30-51%.

Q: What about the “median inhibition of the area of vascularized cornea” value ([1]; 200 mg/kg orally) of the same molecule?
A: The value was 36%.
